Patent US11413278B2, “Compounds and methods for promoting stress resistance” (priority 2015, dated 2022)
Read-outs that look alike come from different tables or passages of the source.

Assays:
[1] = tested on: WI-38 cells; assay: Propidium iodide (PI) cell-death imaging upon H2O2 stress; assay type: cell-based, human; conditions: for Assay 7: H2O2-resistant, at 10 uM, validated by propidium iodide (PI) cell-death imaging: w/H2O2, 3 hrs/4 hrs/5 hrs, YES/NO; for cytotoxicity at 10 µM: Homo sapiens, WI-38
[2] = Summary score for characterization of 38 core set hits; conditions: for D = Triple resistant: 2-point score, multiplex resistance (cadmium, MMS, H2O2); for S = Sum of Negative scores: human; for C = H2O2- & Cd-resistant: score, resistance to both H2O2 and cadmium
Procedure: 38 “core set” small molecules are listed and are assigned a score, based on the result for each individual characterization. From our small molecule screen for H2O2-resistance, we isolated 61 top hits. […] Specifically, a 2-point score was assigned to the most well-known and prominent longevity-related phenotypes, such as multiplex resistance, activation of FOXO3 and/or NRF2, and down-regulation of mTOR. Small molecules were also analyzed for their ability to extend C. elegans' lifespan in 4 to 6 independent trials, and the lifespan score scale is from 0 to 2: 0 for no obvious effects, 1 for lifespan extension observed in 2 trials, 2 for observed in more than 2 trials. Certain molecules appeared to have DNA-damaging effects and/or potential cell-toxicity in cultured human cells, and they receive a negative point.

[3] = tested on: WI-38 cells; assay: Long-term effects on cell viability (5 days, ATP; morphology, PI imaging); assay type: cell-based; conditions: 10 μM; for Luminescence signal for ATP measurement, day-1 Average / Luminescence signal for ATP measurement, day-2 Average / Luminescence signal for ATP measurement, day-3 Average / Luminescence signal for ATP measurement, day-4 Average / Luminescence signal for ATP measurement, day-5 Average / viability at 10 µM: Batch 1; for Luminescence signal for ATP measurement, day-1 Average / Luminescence signal for ATP measurement, day-2 Average / Luminescence signal for ATP measurement, day-3 Average / Luminescence signal for ATP measurement, day-4 Average / Luminescence signal for ATP measurement, day-5 Average: n = 6, day-0 luminescence = 320956 ± 24708; for viability at 10 µM: Homo sapiens, WI-38, 120 h, DMSO ctrl = 100.0%, read-out: ATP luminescence by day-5 normalized; for Luminescence signal for ATP measurement, day-5 Average / viability at 10 µM: day-5;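 on Luminescence signal for ATP measurement, day-2 Average: compounds at 10 µM with ATP read daily over 5 days of treatment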;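 on Luminescence signal for ATP measurement, day-3 Average: compounds at 10 µM with ATP read daily over 5 days of treatment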;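 on Luminescence signal for ATP measurement, day-4 Average: compounds at 10 µM with ATP read daily over 5 days of treatment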;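 on Luminescence signal for ATP measurement, day-5 Average: compounds at 10 µM with ATP read daily over 5 days of treatment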
[4] = tested on: human dermal fibroblast (HDF) primary cells; assay: H2O2-resistance in primary human dermal fibroblasts; assay type: cell-based; conditions: for fold induction at 10 µM: Homo sapiens; for Assay 6: H2O2-resistant, at 10 uM, human dermal fibroblast (HDF) primary cells: YES/NO
[5] = tested on: NRF2; assay: qPCR analysis of NRF2-regulated genes; assay type: cell-based, human; conditions: for fold induction at 10 µM: Homo sapiens
Procedure, shortened: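 Expression of HMOX1, NQO1, GCLC and GSTM1 measured by qPCR relative to B2M, PPIA and GAPDH. Cells were WI-38 fibroblasts exposed 24 hrs to 10 μM compound, with RNA and cDNA prepared via Cells-to-Ct. Where stated, cells were first transfected 36 hrs with FOXO3 or NRF2 siRNA at 10 nM.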

[6] = H2O2 3 hrs, 10 uM, n = 6, negative control 5.44% ± 0.79%, read-out: Percentage of propidium iodide-positive dead cells (under H2O2 stress treatment), 3 hrs
[7] = pre-treatment at 10 uM, 3.5 hours of H2O2, DMSO control 27.4% ± 6.5%, */**/*** = reduced by one/two/three standard deviations, read-out: Percentage of propidium iodide-positive dead cells (under H2O2 stress treatment), at 10 uM
[8] = Experiment 1, HDF cells, read-out: Experiment 1, HDF cells (under H2O2 stress treatment), at 10 uM (fold change)
[9] = Experiment 2, HDF cells, read-out: Experiment 2, HDF cells (under H2O2 stress treatment), at 10 uM (fold change)
[10] = 24 h, Assay 12(o), at 10 uM, qPCR, read-out: Induction of NRF2-regulated genes: NQO1 normalized fold-change
[11] = rounded fold change, WI-38 cells, 10 μM, 24 hrs (RP29 for Gr-4D), read-out: Summary of effects on NRF2-regulated genes: NQO1
[12] = 10 μM, 24 hrs, WI-38 cells, qPCR, normalized to B2M, n = 4, read-out: NQO1 expression, normalized fold change (NRF2-regulated gene)
[13] = WI-38 cells, 10 μM, 24 hrs, n=4, qPCR normalized by B2M, read-out: GCLC Normalized fold change
[14] = WI-38 cells, 10 μM, 24 hrs, n=4, qPCR normalized by B2M, read-out: GSTM1 Normalized fold change
[15] = WI-38 cells, 10 μM, 24 hrs, n=4, qPCR normalized by B2M, read-out: HMOX1 Normalized fold change
[16] = WI-38 cells, 10 μM, 24 hrs, n=4, qPCR normalized by B2M, read-out: NQO1 Normalized fold change

| Structure (SMILES) | Assay 7: H2O2-resistant, at 10 uM, validated by propidium iodide (PI) cell-death imaging ([1]; 10 uM) | cytotoxicity at 10 µM [1, 6] [%] | cytotoxicity at 10 µM [1, 7] [%] | D = Triple resistant [2] | S = Sum of Negative scores [2] | C = H2O2- & Cd-resistant [2] | Luminescence signal for ATP measurement, day-1 Average [3] | Luminescence signal for ATP measurement, day-2 Average [3] | Luminescence signal for ATP measurement, day-3 Average [3] | Luminescence signal for ATP measurement, day-4 Average [3] | Luminescence signal for ATP measurement, day-5 Average [3] | viability at 10 µM [3] [%] | O = Potential toxicity ([3]; human, 5 days) | Q = Potential toxicity ([3]; human, 5 days) | fold induction at 10 µM [4, 8] | fold induction at 10 µM [4, 9] | Assay 6: H2O2-resistant, at 10 uM, human dermal fibroblast (HDF) primary cells [4] | F = Potential NRF2 Activation ([5]; 2-point score) | fold induction at 10 µM [5, 10] | fold induction at 10 µM [5, 11] | other results |
| --- | --- | --- | --- | --- | --- | --- | --- | --- | --- | --- | --- | --- | --- | --- | --- | --- | --- | --- | --- | --- | --- |
| O=C(Nc1cc(C(F)(F)F)ccc1Cl)c1ccc([N+](=O)[O-])o1 [Gr-1B] | YES | 2.69 | 38.1 | 0 | 0 | 1 | 442035 | 577575 | 726850 | 977658 | 1021113 | 99.4 | 1 | 0 | 0.51 | 53.7 | YES | 0 | 1.19 | 1.31 | Reduction of ATP content after 5 days of continuous incubation ([3]; human, 5 days): more than 40%; fold induction at 10 µM ([5]; 24 h, Assay 12(o), at 10 uM, qPCR, read-out: Induction of NRF2-regulated genes: GCLC normalized fold-change): 1.24; fold induction at 10 µM ([5]; 24 h, Assay 12(o), at 10 uM, qPCR, read-out: Induction of NRF2-regulated genes: GSTM1 normalized fold-change): 1.44; fold induction at 10 µM ([5]; rounded fold change, WI-38 cells, 10 μM, 24 hrs (RP29 for Gr-4D), read-out: Summary of effects on NRF2-regulated genes: GSTM1): 2; fold induction at 10 µM ([5]; 10 μM, 24 hrs, WI-38 cells, qPCR, normalized to B2M, n = 4, read-out: GSTM1 expression, normalized fold change (NRF2-regulated gene)): 2; fold induction at 10 µM [5, 12]: 1.31; fold induction at 10 µM [5, 13]: 1.44; fold induction at 10 µM [5, 14]: 2; fold induction at 10 µM [5, 15]: 1.31; fold induction at 10 µM [5, 16]: 1.31; F = Potential NRF2 Activation ([5]; summary score): 0 |
| CCCN1C/C(=C\c2ccc(F)cc2)C(=O)/C(=C/c2ccc(F)cc2)C1 [O15] | YES | 4.04 | 6.8 | 0 | 0 | 0 | 426828 | 601153 | 634740 | 904970 | 761533 | 74.2 | 1 | 0 | 0.57 | 1.77 | YES | 2 | 1.6 | 1.6 | cytotoxicity at 10 µM ([1]; H2O2 4 hrs, 10 uM, n = 6, negative control 16.81% ± 1.42%, read-out: Percentage of propidium iodide-positive dead cells (under H2O2 stress treatment), 4 hrs): 4.4%; cytotoxicity at 10 µM ([1]; H2O2 5 hrs, 10 uM, n = 6, negative control 22.50% ± 1.53%, read-out: Percentage of propidium iodide-positive dead cells (under H2O2 stress treatment), 5 hrs): 6.06%; Potential NRF2 Activation (>=2 target genes induced, by >=1.5-fold) ([5]; Assay 13(p)): YES; fold induction at 10 µM ([5]; 24 h, Assay 12(o), at 10 uM, qPCR, read-out: Induction of NRF2-regulated genes: HMOX1 normalized fold-change): 48.7; fold induction at 10 µM ([5]; rounded fold change, WI-38 cells, 10 μM, 24 hrs (RP11 for Gr-1D, RP29 for Gr-4D), read-out: Summary of effects on NRF2-regulated genes: HMOX1): 48.7; fold induction at 10 µM ([5]; 10 μM, 24 hrs, WI-38, read-out: Expression of at least two NRF2 target genes): > 1.5; fold induction at 10 µM ([5]; 10 μM, 24 hrs, WI-38 cells, qPCR, normalized to B2M, n = 4, read-out: HMOX1 expression, normalized fold change (NRF2-regulated gene)): 48.7; fold induction at 10 µM [5, 12]: 1.6; fold induction at 10 µM [5, 13]: 1.23; fold induction at 10 µM [5, 14]: 0.995; fold induction at 10 µM [5, 15]: 48.7; fold induction at 10 µM [5, 16]: 1.6; F = Potential NRF2 Activation ([5]; summary score): 2 |
